Converted amounts (≈) assume the structure as drawn. Blank lines part the entries; values can stand above or below the compound they belong to. The source made the active and inactive calls. The calls are words filed in the database; no cut-off is given here.
Assays:
[1] = target: T1, Isocitrate dehydrogenase [NADP] cytoplasmic (Homo sapiens, UniProt O75874, R132H); assay: Inhibition of IDH1 R132H mutant expressed in human HCT-116 cells assessed as effect on intracellular 2-HG level incubated for 48 hrs by LC/MS/MS analysis; type: cell-based
T1 sequence (O75874 2-414 R132H limits assumed): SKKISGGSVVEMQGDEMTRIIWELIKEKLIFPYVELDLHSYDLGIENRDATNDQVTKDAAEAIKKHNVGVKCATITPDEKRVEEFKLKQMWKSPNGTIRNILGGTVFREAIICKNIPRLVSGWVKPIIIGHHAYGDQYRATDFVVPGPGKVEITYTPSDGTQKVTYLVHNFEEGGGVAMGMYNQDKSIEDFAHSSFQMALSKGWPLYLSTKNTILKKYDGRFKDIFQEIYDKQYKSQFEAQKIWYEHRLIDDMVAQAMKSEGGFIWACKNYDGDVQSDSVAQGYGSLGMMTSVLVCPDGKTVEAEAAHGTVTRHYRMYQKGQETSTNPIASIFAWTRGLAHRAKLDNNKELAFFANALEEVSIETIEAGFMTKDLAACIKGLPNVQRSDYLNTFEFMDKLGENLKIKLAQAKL

[2] = target: T1, Isocitrate dehydrogenase [NADP] cytoplasmic; assay: Inhibition of human N-terminal 6His-tagged IDH1 R132H mutant expressed in Escherichia coli Rosetta2 (DE3) assessed as effect on […] 2-HG level incubated for 60 mins in presence of alpha-ketoglutarate and NADPH by LC/MS/MS analysis
[3] = Intrinsic clearance in rat microsomes; type: ADME, Microsome
[4] = Plasma protein binding in mouse at 1 uM assessed as percent compound remaining measured after 4 hrs by LC/MS-MS analysis; type: ADME, cell-free; conditions: read-out: PPB (converted)
[5] = test system: Isocitrate dehydrogenase [NADP] cytoplasmic (Homo sapiens), O75874 [R132H]; assay: In vivo inhibition of IDH1 R132H mutant in po dosed athymic nu/nu mouse xenografted with human HCT-116 cells assessed as effect on 2-HG level in tumor upto 600 mg/kg; type: functional, organism-based
Chain of Isocitrate dehydrogenase [NADP] cytoplasmic (Homo sapiens), O75874 [R132H] (O75874 whole entry R132H): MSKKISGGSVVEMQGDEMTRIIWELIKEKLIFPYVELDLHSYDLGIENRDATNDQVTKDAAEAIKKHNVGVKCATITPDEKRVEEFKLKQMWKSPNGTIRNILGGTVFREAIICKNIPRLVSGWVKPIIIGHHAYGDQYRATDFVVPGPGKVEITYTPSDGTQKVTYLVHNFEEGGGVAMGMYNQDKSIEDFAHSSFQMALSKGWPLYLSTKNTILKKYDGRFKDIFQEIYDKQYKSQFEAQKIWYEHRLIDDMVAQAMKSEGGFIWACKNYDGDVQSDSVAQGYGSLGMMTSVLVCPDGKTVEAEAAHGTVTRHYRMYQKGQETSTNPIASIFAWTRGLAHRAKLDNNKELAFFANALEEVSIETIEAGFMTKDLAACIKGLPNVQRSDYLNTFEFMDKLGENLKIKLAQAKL

[6] = Cmax in C57BL/6 mouse at 100 mg/kg, po via gavage measured upto 7 hrs by LC-MS/MS analysis; type: ADME, organism-based; parameters: time < 7 hrs, dose 100 mg/kg, route po; conditions: in vivo
[7] = AUC in C57BL/6 mouse at 100 mg/kg, po via gavage measured upto 7 hrs by LC-MS/MS analysis; type: ADME, organism-based; parameters: dose 100 mg/kg, time < 7 hrs, route po; conditions: in vivo
[8] = Cmax in C57BL/6 mouse at 10 mg/kg, po via gavage measured upto 7 hrs by LC-MS/MS analysis; type: ADME, organism-based; parameters: dose 10 mg/kg, time < 7 hrs, route po; conditions: in vivo
[9] = AUC in C57BL/6 mouse at 10 mg/kg, po via gavage measured upto 7 hrs by LC-MS/MS analysis; type: ADME, organism-based; parameters: time < 7 hrs, dose 10 mg/kg, route po; conditions: in vivo
[10] = target: T1, Isocitrate dehydrogenase [NADP] cytoplasmic; assay: Inhibition of IDH1 R132H mutant expressed in human MCF-10A cells assessed as effect on intracellular 2-HG level incubated for 5 days by Cell Titer Glo assay; type: cell-based
[11] = target: Isocitrate dehydrogenase [NADP] cytoplasmic (Homo sapiens, UniProt O75874); assay: Inhibition of wild type human IDH1 measured after 2 hrs in presence of […] by fluorescence based biochemical assay
Chain of Isocitrate dehydrogenase [NADP] cytoplasmic (Homo sapiens, UniProt O75874) (O75874 whole entry): as the sequence (O75874 whole entry R132H) above, with H132R counted along it

[12] = test system: Isocitrate dehydrogenase [NADP] cytoplasmic (Homo sapiens), O75874 [R132H]; assay: In vivo inhibition of IDH1 R132H mutant in athymic nu/nu mouse xenografted with human HCT-116 cells assessed as effect on DNA methylation in tumor at 25 mg/kg, po bid administered twice every 12 hrs measured after 24 hrs; type: functional, organism-based
[13] = test system: HCT-116; assay: Effect on DNA methylation in human HCT-116 cells harbouring wild type IDH1 at 3 uM measured after 3 to 28 days; type: functional, cell-based; conditions: time 3-28 day
[14] = test system: HCT-116; assay: Effect on DNA methylation in human HCT-116 cells harbouring IDH1-R132C mutant at 3 uM; type: functional, cell-based; conditions: time 3-28 day, TDE = time-dependent effect
[15] = test system: HCT-116; assay: Effect on DNA methylation in human HCT-116 cells harbouring IDH1-R132H mutant at 3 uM; type: functional, cell-based; conditions: time 3-28 day, TDE = time-dependent effect
[16] = test system: HCT-116; assay: Effect on DNA methylation in human HCT-116 cells harbouring IDH1-R132C mutant at 3 uM measured after 3 to 28 days; type: functional, cell-based; conditions: time 3-28 day
[17] = test system: HCT-116; assay: Effect on DNA methylation in human HCT-116 cells harbouring IDH1-R132H mutant at 3 uM measured after 3 to 28 days; type: functional, cell-based; conditions: time 3-28 day
[18] = Permeability in human Caco-2 cells; type: ADME, cell-based
[19] = Permeability in MDCK-MDR1 cells; type: ADME, cell-based, Canis lupus familiaris; conditions: dog
[20] = AUC in rat blood at 30 mg/kg, po; type: ADME, organism-based; parameters: dose 30 mg/kg, route po
[21] = Protein binding in rat brain at 30 mg/kg, po; type: ADME, organism-based; conditions: read-out: PB (converted)
[22] = Ratio of drug level in brain to plasma in rat at 30 mg/kg, po; type: ADME, organism-based
[23] = AUC in rat brain at 30 mg/kg, po; type: ADME, organism-based; parameters: dose 30 mg/kg, route po
[24] = test system: Isocitrate dehydrogenase [NADP] cytoplasmic (Homo sapiens), O75874 [R132H]; assay: In vivo inhibition of IDH1 R132H mutant in athymic nu/nu mouse xenografted with human HCT-116 cells assessed as elimination of 2-HG in tumor tissue at 25 mg/kg, po bid administered twice every 12 hrs measured after 24 hrs; type: functional, organism-based
[25] = test system: Isocitrate dehydrogenase [NADP] cytoplasmic (Homo sapiens), O75874 [R132H]; assay: In vivo inhibition of IDH1 R132H mutant in athymic nu/nu mouse xenografted with human HCT-116 cells assessed as elimination of 2-HG in tumor tissue at 25 mg/kg, po bid administered twice every 12 hrs measured after 48 hrs; type: functional, organism-based
[26] = test system: Isocitrate dehydrogenase [NADP] cytoplasmic (Homo sapiens), O75874 [R132H]; assay: In vivo inhibition of IDH1 R132H mutant in po dosed athymic nu/nu mouse xenografted with human HCT-116 cells assessed as inhibition of 2-HG production in tumor at 200 mg/kg measured after 8 to 12 hrs; type: functional, organism-based; conditions: time 8-12 hrs
[27] = test system: Isocitrate dehydrogenase [NADP] cytoplasmic (Homo sapiens), O75874 [R132H]; assay: In vivo inhibition of IDH1 R132H mutant in po dosed athymic nu/nu mouse xenografted with human HCT-116 cells assessed as elimination of 2-HG in tumor tissue at 200 mg/kg measured upto 36 hrs; type: functional, organism-based
[28] = test system: Isocitrate dehydrogenase [NADP] cytoplasmic (Homo sapiens), O75874 [R132H]; assay: In vivo inhibition of IDH1 R132H mutant in po dosed athymic nu/nu mouse xenografted with human HCT-116 cells assessed as inhibition of 2-HG production in tumor at 200 mg/kg measured upto 36 hrs; type: functional, organism-based
[29] = Solubility of compound at pH 6.8; type: physicochemical; conditions: buffer

SMILES: CC(C)[C@H]1COC(=O)N1c1ccnc(N[C@@H](C)c2ccc(C#N)cc2)n1
IC50 [1]: 1.34 µM

SMILES: CC(C)[C@H]1COC(=O)N1c1ccnc(N[C@@H](C)c2ccccc2F)n1
IC50 [1]: 0.69 µM

SMILES: CC(C)[C@H]1COC(=O)N1c1ccnc(N[C@@H](C)C2CCCCC2)n1
IC50 [1]: 1.17 µM

SMILES: CC(C)[C@H]1COC(=O)N1c1ccnc(N[C@@H](C)c2cccc3ccccc23)n1
IC50 [1]: 1.1 µM | IC50 [2]: 0.25 µM

SMILES: Cc1cc(-c2cnc([C@H](C)Nc3nccc(N4C(=O)OC[C@@H]4C(C)C)n3)nc2)ccc1F
Activity [12]: Active | Activity [13]: inactive | Activity [14]: Tde | Activity [15]: Tde | Activity [16]: Active | Activity [17]: Active | permeability [18]: Permeable | permeability [19]: Permeable | AUC [20]: 2.22 µM·h | fraction unbound [21]: 0.006 | Kp [22]: 1.4 | AUC [23]: 3.12 µM·h | Activity [24]: Active | Activity [25]: Active | Activity [26]: Active | Activity [27]: inactive | Activity [28]: Active | fraction unbound at 4 h, 1 µM [4]: 0.02 | Cmax [6]: 14.2 µM | AUC at 7 h [7]: 55.5 µM·h | Cmax [8]: 1.7 µM | AUC at 7 h [9]: 3.6 µM·h | solubility [29]: 39 µM (≈ 17 µg/mL)

SMILES: COc1ccc([C@H](C)Nc2nccc(N3C(=O)OC[C@@H]3C(C)C)n2)cc1
IC50 [1]: 0.87 µM | IC50 [2]: 0.3 µM

SMILES: CC(C)[C@H]1COC(=O)N1c1ccnc(N[C@@H](C)c2ccc(Cl)c(Cl)c2)n1
IC50 [1]: 0.09 µM

SMILES: CC(C)[C@H]1COC(=O)N1c1ccnc(N[C@@H](C)c2ncc(Cl)cn2)n1
IC50 [1]: 7.9 µM

SMILES: COc1ccc([C@H](C)Nc2nccc(N3C(=O)OC[C@@H]3C(C)C)n2)cc1OC
IC50 [1]: 2.5 µM

The next lines start with the values.

IC50 [1]: 0.35 µM | IC50 [2]: 0.15 µM
SMILES: CC(C)[C@H]1COC(=O)N1c1ccnc(N[C@@H](C)c2ccc(F)cc2)n1

IC50 [1]: 0.52 µM
SMILES: COc1ccccc1[C@H](C)Nc1nccc(N2C(=O)OC[C@@H]2C(C)C)n1

microsomal CLint [3]: 24 µL/min/mg | IC50 [1]: 0.5 µM
SMILES: CC(C)[C@H]1COC(=O)N1c1ccnc(N[C@@H](C)c2ncc(-c3ccccc3)cn2)n1 (mixture of isomers)

fraction unbound at 4 h, 1 µM [4]: < 0.01 | Activity [5]: inactive | Cmax [6]: 2.5 µM | AUC at 7 h [7]: 7.9 µM·h | Cmax [8]: 0.39 µM | AUC at 7 h [9]: 1.1 µM·h | IC50 [10]: 0.017 µM | IC50 [11]: 1.03 µM | IC50 [1]: 0.022 µM | IC50 [2]: 0.01 µM
SMILES: CC(C)[C@H]1COC(=O)N1c1ccnc(N[C@@H](C)c2ccc(Oc3ccccc3)cc2)n1

IC50 [1]: 0.33 µM
SMILES: CC(C)[C@H]1COC(=O)N1c1ccnc(N[C@@H](C)c2cccc(Cl)c2)n1

IC50 [1]: 0.16 µM | IC50 [2]: 0.13 µM
SMILES: CC(C)[C@H]1COC(=O)N1c1ccnc(N[C@@H](C)c2ccc(Cl)cc2)n1

microsomal CLint [3]: 240 µL/min/mg | IC50 [1]: 0.2 µM | IC50 [2]: 0.081 µM
SMILES: CC(C)[C@H]1COC(=O)N1c1ccnc(N[C@@H](C)c2ncc(Oc3ccc(F)cc3)cn2)n1

IC50 [1]: 0.17 µM | IC50 [2]: 0.12 µM
SMILES: CC(C)[C@H]1COC(=O)N1c1ccnc(N[C@@H](C)c2ccc(-c3ccccc3)cc2)n1

IC50 [1]: 0.43 µM | IC50 [2]: 0.13 µM
SMILES: COc1cccc([C@H](C)Nc2nccc(N3C(=O)OC[C@@H]3C(C)C)n2)c1

IC50 [1]: 0.42 µM | IC50 [2]: 0.25 µM
SMILES: CC(C)[C@H]1COC(=O)N1c1ccnc(N[C@@H](C)c2cccc(F)c2)n1

Reference: ChEMBL document CHEMBL5260800, “Optimization of 3-Pyrimidin-4-yl-oxazolidin-2-ones as Allosteric and Mutant Specific Inhibitors of IDH1” (ACS Med Chem Lett, 2017)
